Results published in the supplement of paper PMC10307832.

Experiments:
Assay in all cases: relative viability (nuclei count vs DMSO), 5 days (fraction); higher = more cells survive
[1] = compound: CC(=O)c1c(C)c2cnc(Nc3ccc(N4CCNCC4)cn3)nc2n(C2CCCC2)c1=O [Palbociclib] + CCNC(=O)c1noc(-c2cc(C(C)C)c(O)cc2O)c1-c1ccc(CN2CCOCC2)cc1 [Luminespib] (partner 0.01 µM)
Outline: (§1)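 The day after seeding in 1536-well plates, lung cancer cell lines were treated by pin tool with a single drug, or with a fixed anchor-drug dose together with five library-drug doses (not always all listed) in √10 steps. After 5 days, a combined fix-and-stain solution (final 0.05% Triton X-100, 1% formaldehyde, 1 ug/ml Hoechst) was added. Nuclei counted on 4× images gave relative viability as treated counts over vehicle counts, reported as the median of duplicate plates.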

[2] = compound: CC(=O)c1c(C)c2cnc(Nc3ccc(N4CCNCC4)cn3)nc2n(C2CCCC2)c1=O [Palbociclib] + COc1cccc2cc(-c3nc([C@H]4CC[C@H](C(=O)O)CC4)n4ncnc(N)c34)[nH]c12 [OSI-027] (partner 0.5 µM)
Outline: as §1

[3] = compound: CC(=O)c1c(C)c2cnc(Nc3ccc(N4CCNCC4)cn3)nc2n(C2CCCC2)c1=O [Palbociclib] + CC(=O)Nc1cccc(-n2c(=O)n(C3CC3)c(=O)c3c(Nc4ccc(I)cc4F)n(C)c(=O)c(C)c32)c1 [Trametinib] (partner 0.02 µM)
Outline: as §1

[4] = compound: CC(=O)c1c(C)c2cnc(Nc3ccc(N4CCNCC4)cn3)nc2n(C2CCCC2)c1=O [Palbociclib] + COc1cc2c(Oc3ccc(NC(=O)C4(C(=O)Nc5ccc(F)cc5)CC4)cc3F)ccnc2cc1OCCCN1CCOCC1 [Foretinib] (partner 0.25 µM)
Outline: as §1

Cell Line | relative viability ([1]; first compound 0.01 µM) | relative viability ([1]; first compound 0.03162 µM) | relative viability ([1]; first compound 0.1 µM) | relative viability ([1]; first compound 0.3162 µM) | relative viability ([1]; first compound 1 µM) | relative viability ([2]; first compound 0.01 µM) | relative viability ([2]; first compound 0.03162 µM) | relative viability ([2]; first compound 0.1 µM) | relative viability ([2]; first compound 0.3162 µM) | relative viability ([2]; first compound 1 µM) | relative viability ([3]; first compound 0.01 µM) | relative viability ([3]; first compound 0.03162 µM) | relative viability ([3]; first compound 0.1 µM) | relative viability ([3]; first compound 0.3162 µM) | relative viability ([3]; first compound 1 µM) | relative viability ([4]; first compound 0.01 µM) | relative viability ([4]; first compound 0.03162 µM) | relative viability ([4]; first compound 0.1 µM) | relative viability ([4]; first compound 0.3162 µM) | relative viability ([4]; first compound 1 µM)
LCLC-103H | 0.978 | 0.808 | 0.848 | 0.718 | 0.584 | 0.432 | 0.368 | 0.406 | 0.358 | 0.302 | 0.7 | 0.617 | 0.686 | 0.654 | 0.547 | 0.782 | 0.619 | 0.8 | 0.522 | 0.481
LU99A | 0.254 | 0.201 | 0.232 | 0.251 | 0.2 | 0.305 | 0.274 | 0.221 | 0.238 | 0.223 | 0.557 | – | 0.523 | 0.573 | 0.478 | 0.782 | 0.82 | 0.765 | 0.724 | 0.583
201T | 1.02 | 1.01 | 0.909 | 0.878 | 0.749 | 0.763 | 0.676 | 0.661 | 0.613 | 0.338 | 0.733 | 0.684 | 0.71 | 0.692 | 0.609 | 0.932 | 0.841 | 0.72 | 0.77 | 0.419
NCI-H1563 | 0.479 | 0.444 | 0.432 | 0.577 | 0.489 | 0.75 | 0.776 | 0.74 | 0.735 | 0.534 | – | – | – | – | – | 0.972 | 0.89 | 0.821 | 0.853 | 0.8
NCI-H2347 | 0.41 | – | 0.366 | 0.429 | 0.453 | 0.467 | – | 0.402 | 0.379 | 0.308 | 0.295 | 0.292 | 0.244 | 0.249 | 0.272 | 0.917 | – | 0.844 | – | 0.546
UMC-11 | 1.04 | 0.819 | 0.69 | 0.452 | 0.285 | 0.462 | 0.417 | 0.302 | 0.308 | 0.286 | 0.762 | 0.602 | 0.421 | 0.406 | 0.258 | 1.01 | 0.86 | 0.698 | 0.459 | 0.275
NCI-H661 | 0.868 | 0.789 | 0.597 | 0.523 | 0.416 | 0.77 | 0.552 | 0.464 | 0.354 | 0.313 | 0.536 | 0.5 | 0.423 | 0.477 | 0.336 | 1.01 | 0.792 | 0.695 | 0.626 | 0.495
NCI-H3122 | 0.081 | 0.0895 | 0.0794 | 0.0926 | 0.0834 | 0.82 | 0.602 | 0.346 | 0.172 | 0.169 | 0.212 | 0.207 | 0.232 | 0.192 | 0.158 | 0.854 | 0.936 | 0.892 | 0.7 | 0.553
HCC-78 | – | – | – | – | – | 0.424 | 0.382 | 0.315 | 0.319 | 0.254 | 0.869 | 0.62 | 0.524 | 0.531 | 0.374 | 0.54 | 0.453 | 0.481 | 0.509 | 0.364
PC-3 [JPC-3] | 0.708 | 0.743 | 0.649 | 0.661 | 0.53 | 0.728 | 0.599 | 0.561 | 0.483 | 0.349 | 0.657 | 0.634 | 0.534 | 0.703 | 0.597 | 1.1 | 0.955 | 0.884 | 0.855 | 0.64
NCI-H1299 | – | – | – | – | – | – | – | – | – | – | – | – | – | – | – | 1.05 | 0.996 | 1.02 | 0.942 | 0.754
Calu-6 | – | – | – | – | – | – | – | – | – | – | – | – | – | – | – | 0.879 | 0.808 | 0.714 | 0.672 | 0.463
EBC-1 | – | – | – | – | – | – | – | – | – | – | – | – | – | – | – | 0.113 | 0.0957 | 0.0957 | 0.0852 | 0.0884
NCI-H1703 | – | – | – | – | – | – | – | – | – | – | – | – | – | – | – | 0.259 | 0.308 | 0.287 | 0.28 | 0.292
HCC-44 | 0.933 | 1.01 | 1.02 | 1.35 | 1.11 | 0.487 | 0.492 | 0.512 | 0.582 | 0.482 | 1.07 | 1.1 | 1.02 | 0.987 | 1.1 | – | – | – | – | –
HCC-366 | – | – | – | – | – | 0.916 | – | 0.722 | 0.731 | 0.482 | 0.466 | – | 0.41 | 0.298 | 0.24 | 0.919 | – | 0.893 | 0.953 | 0.797
NCI-H1792 | 0.558 | 0.498 | 0.288 | 0.327 | 0.371 | 0.821 | 0.688 | 0.649 | 0.537 | 0.485 | 0.501 | 0.376 | 0.323 | 0.338 | 0.213 | – | – | – | – | –
ABC-1 | 0.625 | 0.521 | 0.423 | 0.459 | 0.949 | 0.483 | 0.443 | 0.436 | 0.351 | 0.301 | – | – | – | – | – | 0.963 | 0.808 | 0.852 | 0.763 | 0.709
